Consider three molecules from patent publication US10953003B2, “Methods for treating cancer” (X4 Pharmaceuticals, Inc., priority 2015, dated 2021).

For series [1] the following is noted: Phase 1 and 2a trials; cited from earlier work.
Series [2] concerns A375 cells. The experiment in a line: A375 cells with or without constitutively active Stat3 construct, treated 24 h. Conditions: A375 cells +/- constitutively active Stat3, 24 h, normoxic or hypoxic; FIG. 15. It counts as cell-based. From the text: FIG. 15A illustrates Western blot results from lysates of A375 cells or A375 cells transfected with a constitutively active Stat3 construct. […] Without wishing to be bound by theory, it is believed that Stat3 is important in promoting CXCL-12 mediated invasion of tumors.

For series [3], the system named is 786 cells. The experiment in a line: 786 cells treated in vitro for 24 hours, normoxic and hypoxic (1% O2). Conditions: 786 hypoxic cells in vitro. It counts as cell-based, human. From the text:
FIG. 14B illustrates mir-30a and mir-30c microRNA and (FIG. 14C) total HIF-2α, RNA expression from the same cells from FIG. 14A.

Series [4] deals with A498 RCC xenografts. Kind of series: Murine A498 RCC xenograft model. Conditions: for MDSC infiltration of tumors: CD11b+ GR-1+ cells, FIGS. 5B, 5D; for effects on tumor growth: nude/beige mice, tumors measured on day 7, FIG. 1B. It counts as in vivo, mice. How it is done:
(§1) With each of the human cell lines, 1×10^7 tumor cells were implanted subcutaneously in the flanks of 36 nude/beige mice and tumors allowed to grow to roughly 7 mm in diameter. […] Therefore, on day 7, the mice were sacrificed and the tumors were measured and immediately excised and divided into three parts. One part of each tumor was paraffin-embedded for dual color immunofluorescence. Another part was mechanically disaggregated and treated with collagenase/DNAse to generate a single cell suspension for flow cytometry. The third part was frozen for future pharmacokinetic analysis. Microscope slides were made from the paraffin-embedded tumor tissue, which were stained with antibodies against CD11b, Gr-1, and FAP. The number of infiltrating CD11b+/Gr-1+ MDSC and FAP+ fibroblasts present in the tumor tissue was then determined by immunofluorescence (IF) as previously described (1).
(§2) The disaggregated tumor specimens were analyzed for CD11b+/Gr-1+ MDSC and FAP+ fibroblasts by flow cytometry. The fraction of both populations expressing CXCR4 were also determined. At the time the mice were sacrificed, the spleens were removed and cut in half. One part was disaggregated into single cell suspensions and analyzed by flow cytometry as above for MDSC. The second half was frozen for future analyses, such as PK analysis. Finally, a bone marrow (BM) sample was generated by extruding marrow from an excised femur with a syringe filled with saline and analyzed by flow cytometry for MDSC.

Series [5] has as its system 786-0 RCC xenografts. Kind of series: Murine 786-0 RCC xenograft model. It counts as in vivo, mice. Conditions: for effects on tumor growth / MDSC infiltration of tumors: 786-0 xenografts; for effects on tumor growth: nude/beige mice, tumors measured on day 7, FIG. 1A; for MDSC infiltration of tumors: CD11b+ GR-1+ cells, FIGS. 5A, 5C. As for the experimental part:
as §1, §2

Series [6] relates to renal cell carcinoma (RCC) xenografts. Conditions: cited from earlier work.
For series [7] the following is noted: cited from earlier work.
For series [8] the following is noted: oral axitinib; see current product label; cited from earlier work.
For series [9] the following is noted: over the range pH 1.1 to pH 7.8; cited from earlier work.

As usually defined, the pKa is the pH at which an ionisable group is half protonated.

With `NCCCCN(Cc1nc2ccccc2[nH]1)[C@H]1CCCc2cccnc21` [X4P-001], in [1], the “pharmacodynamic activity: circulating white blood cells (WBCs)” value was “dose- and concentration-related changes”; the “volume of distribution (VL)” value is on record as “high”. For the same molecule, the “suppression of HIF-2α and induction of mir-30a and 30c” value in series [2] is reported as “dependent on Stat3 expression”. The “mir-30a and mir-30c microRNA” value in series [3] (FIG. 14B) is “mir-30a and mir-30c induction”. Moreover, the HIF-2α entry in [3] (FIGS. 14A, 14C) is listed as “HIF-2α reduction”. Also, in series [4], the “MDSC infiltration of tumors” value is “significantly less MDSC infiltration” and the “effects on tumor growth” value is reported as “modest”. In addition, in series [5], the “effects on tumor growth” value was “modest” and the “MDSC infiltration of tumors” value is on record as “significantly less MDSC infiltration”. Moreover, the “level of HIF-2α” value in [5] (786 xenograft tumors, Western blots, 8 days of treatment, FIGS. 11, 13) is on record as “reduction in the level of HIF-2α relative to that caused by axitinib treatment”.
With MI-319, the “development of sunitinib resistance” value in series [6] (MI-319 given concurrently with sunitinib) is listed as “prevented”. Further, the “infiltration of RCC xenografts with CD11b+/Gr-1+ MDSC” value in series [6] (earlier work by some of the inventors, MI-319 given concurrently with sunitinib) is listed as “prevented”. Further, the HIF-2 expression entry in [6] (earlier work of the inventors) is recorded as “suppresses”.
Take `CNC(=O)c1ccccc1Sc1ccc2c(/C=C/c3ccccn3)n[nH]c2c1` [axitinib, N-methyl-2-[3((E)-2-pyridin-2-yl-vinyl)-1H-indazol-6-ylsulfanyl]-benzamide]: the pKa in series [7] is recorded as 4.8. Besides, the “absorption, effect of food” value in series [8] is on record as “not altered by food”. For the same molecule, in [4], the “MDSC infiltration of tumors” value was “extensive MDSC infiltration” and the “effects on tumor growth” value is reported as “no”. Moreover, the “solubility in aqueous media” value in series [9] was over 0.2 µg/mL. The “micro-RNAs mir-30a and mir-30c expression” value in series [5] (786-0 xenograft tumor, after 8 days of treatment, FIG. 12) is recorded as “suppressed”. Further, in series [5], the “effects on tumor growth” value is “no” and the “MDSC infiltration of tumors” value is reported as “extensive MDSC infiltration”.
